Measurements from patent US20120107428A1, “REPELLENTS FOR PESTIFEROUS SOCIAL WASPS” (Sterling International Inc., priority 2010, published 2012).
Where a name gives a salt, the structure may show the parent alone.

Experiments:
[1] = tested on: Yellowjackets (mainly Vespula pensylvanica (ca. 90%), plus V. vulgaris, V. germanica, and Dolichovespula maculata); assay: Field trapping, Rescue W•H•Y traps baited with attractant AA/2MB: captures of yellowjackets; type: in vivo; conditions: for Mean/trap/visit ± SE Yellowjackets: attractant AA/2MB alone (row AA/2MB) or plus chemical, N 9; for reduction of trap catches of yellowjackets: Experiment 9
Protocol: (§1) Eleven field trapping experiments were carried out from late August to mid-October 2009 in residential and woody areas around Spokane, Wash., USA, mostly using the trap known by the designation Rescue® W•H•Y (except on one occasion that Rescue® Reusable Yellowjacket Traps were used for a natural food attractant; see below for details). The commercial W•H•Y trap has a top chamber and a bottom chamber and is described in U.S. Patent Application Publication No. 2009/0151228. The top chamber is baited with two attractants—one of which is a solid contained in a vial (2-methyl-1-butanol), and the other is a liquid mixed with water (acetic acid). The bottom chamber is baited with a liquid attractant (heptyl butyrate) poured onto a cotton pad. Separation of the two types of attractants (otherwise antagonistic to each other when released from the same chamber) in two chambers creates two focal attraction sources from one trap for different species of wasps, hornets, and yellowjackets. […] In a special occasion, the commercial Rescue® Reusable Yellowjacket Traps were each baited with 10 g of chopped bacon (loaded into a cartridge) as a natural protein food attractant. Traps were hung 1.5-2.0 m above the ground on either fences or tree branches ca. 5 m apart between each trap and at least 15 m between sets. For each trapping experiment, three sets of traps (i.e., three physical replicates of each treatment) were deployed with their initial trap positions within each set being randomized. To minimize positional effects and obtain more replications, wasp collections and trap re-randomization were carried out when 5-10 wasps were caught in the best traps. Each replicate lasted several days depending on wasp flight activity. Captured wasps were removed from the traps and kept in the zip-bags before returning to the laboratory for recording of the species, gender status, and catch. Repellent candidates (individuals or mixtures) were released from polyethylene bags (3×5 cm; with a fabric felt) with various thicknesses from 2-12 mil (see release rates listed in tables); they were employed inside the same trap chamber as the attractant.
(§2) Experiment 1 tested five individual essential oils (pennyroyal, lemongrass, peppermint, clove, and citronella) and two known mosquito repellents (i.e., major components of catnip oil), E/Z-nepetalactone and Z/E-nepetalactone plus a blank control against a mixture of attractant [acetic acid (AA) and 2-methyl-1-butanol (2 MB)] using the W•H•Y traps (both attractant and repellent candidates were released from the top chamber) from for eight consecutive days from August to early September. Experiment 2 tested nine individual essential oils (ylang ylang, vetiver, myrrh, patchouli, geranium, eucalyptus, camphor, spearmint, and wintergreen) plus a blank control against a mixture of attractant (AA+2 MB) using the W•H•Y traps (both attractant and repellent candidates were released from the top chamber) for eight consecutive days from late August to early September. Experiment 3 tested seven individual essential oils (Roman chamomile, sage, fennel seed, rosemary, thyme, anise, and lavender) plus a blank control against a mixture of attractant (AA+2 MB) using the W•H•Y traps (both attractant and repellent candidates were released from the top chamber) for eight consecutive days from late August to early September. Experiment 4 tested two essential oil mixtures (3EO-mix: clove, geranium, and lemongrass in ca. 1:1:1 ratio; and 4EO-mix: clove, geranium, lemongrass, and rosemary in ca. 1:1:1:1 ratio) plus a blank control against a mixture of attractant (AA+2 MB) using the W•H•Y traps (both attractant and repellent candidates were released from the top chamber) for 13 consecutive days in September; the essential oil mixtures alone without attractant were tested in the same experiment.

[2] = tested on: Paper wasps (mainly Polistes dominulus, plus a few of P. aurifer); assay: Field trapping, Rescue W•H•Y traps baited with attractant AA/2MB: captures of paper wasps; type: in vivo; conditions: for Mean/trap/visit ± SE Paper wasps: attractant AA/2MB alone (row AA/2MB) or plus chemical, N 9; for decrease of trap catches of paper wasps: Experiment 9
Protocol: as §1, §2

[3] = tested on: worker antennae of Vespula pensylvanica, Dolichovespula maculata, Polistes dominulus, and P. aurifer; assay: GC-EAD/MS analysis of SPME headspace samples of essential oils: antennal responses; conditions: for antennal (EAD) response to component of rosemary oil: V. pensylvanica and D. maculata antennae, FIG. 3; for antennal (EAD) response to component of spearmint oil / antennal (EAD) response to component of pennyroyal oil / antennal (EAD) response to component of geranium oil: V. pensylvanica, D. maculata, P. dominulus, or P. aurifer antennae; for antennal (EAD) response to component of lemongrass oil: antennae of V. pensylvanica, D. maculata, and Polistes dominulus, FIG. 2
Protocol: Headspace volatiles from greater than 10 types of essential oils (1 ml each in a closed 20 ml glass vial) were sampled via Solid-Phase Micro-Extraction (SPME) (CAR/PDMS, 85 μm, Supelco, Bellefonte, Pa.) for 20-30 sec before GC-EAD and GC-MS analyses.
Paper wasp [European paper wasp (Polistes dominulus) or golden paper wasp (P. aurifer)] and yellowjacket [Western yellowjacket (Vespula pensylvanica) or Bald-faced hornet (Dolichovespula maculata)] workers for electrophysiological study were collected from their nests and kept alive at 4° C. before testing.
SPME samples of the various essential oils were injected splitless into a Varian CP-3800 GC equipped with a polar column (HP-INNOWAX; 30 m×0.53 mm×1.0 μm film thickness; Agilent Technologies, Wilmington, Del., USA) and a 1:1 effluent splitter that allowed simultaneous flame ionization detection (FID) and electroantennographic detection (EAD) of either a yellowjacket or paper wasp worker antenna to the separated volatile compounds. Helium was used as the carrier gas, and the injector and detector temperatures were 250° C. and 300° C., respectively. Column temperature was 50° C. for 1 min, rising to 240° C. at 10° C./min, and then held for 10 min. The outlet for the EAD was held in a humidified air stream flowing at 0.5 m/sec over the antennal preparation. EAD recordings were made using silver wire-glass capillary electrodes filled with Beadle-Ephrussi Ringer on freshly cut antennae. The antennal signals were stored and analyzed on a PC equipped with a serial IDAC interface box and the program EAD ver. 2.5 (Syntech, Hilversum, The Netherlands).
Compounds were identified by comparison of retention times with those of authentic standards and with mass spectra of standards.

[4] = tested on: vespid wasps (paper wasps, hornets and yellowjackets); assay: Field trapping experiments, repellency stated for vespid wasps as a whole (yellowjackets and paper wasps; summaries); type: in vivo, Vespula pensylvanica; Polistes dominulus; conditions: Experiment 9; AA/2 MB
Protocol: as §1, §2

[5] = Table 7, Experiment 8, 13 days in September
[6] = V. pensylvanica and P. dominulus worker antennae
[7] = Table 9, Experiment 10, 18 days end of September through mid-October
[8] = Table 8, Experiment 9, 13 days in September

CC12CCC(CC1)C(C)(C)O2 [1,8-Cineole, 1,8-cineole]
repellency at the doses tested ([1]; Experiment 8, AA/2 MB): not significantly repellent
Mean/trap/visit ± SE Yellowjackets [1, 5]: 18.2 ± 4.1 b wasps/trap/visit
Mean/trap/visit ± SE Paper wasps [2, 5]: 4.6 ± 1.8 a wasps/trap/visit
antennal (EAD) response to component of rosemary oil [3]: significant EAD-responses
antennal (EAD) response to component of lavender oil [3, 6]: strong and repeatable antennal responses
antennal (EAD) response to component of sage oil [3, 6]: strong and repeatable antennal responses
antennal (EAD) response to component of spearmint oil [3]: significant and consistent EAD-responses

CCCCCC(O)CC (stereo not shown) [3-Octanol, 3-octanol]
Mean/trap/visit ± SE Yellowjackets [1, 7]: 6.9 ± 2.4 ab wasps/trap/visit
Mean/trap/visit ± SE Paper wasps [2, 7]: 1.1 ± 0.8 a wasps/trap/visit
antennal (EAD) response to component of pennyroyal oil [3]: significant and consistent EAD-responses
antennal (EAD) response to component of spearmint oil [3]: significant and consistent EAD-responses

CCCCCC(=O)CCC [4-nonanone]
antennal (EAD) response to component of lemongrass oil [3]: strongly responded

CC(=O)CCC=C(C)C [6-Methyl-5-hepten-2-one, 6-methyl-5-hepten-2-one]
repellency at the doses tested ([1]; Experiment 8, AA/2 MB): not significantly repellent
Mean/trap/visit ± SE Yellowjackets [1, 5]: 21.9 ± 3.8 b wasps/trap/visit
Mean/trap/visit ± SE Paper wasps [2, 5]: 4.8 ± 2.3 a wasps/trap/visit
antennal (EAD) response to component of lemongrass oil [3]: strongly responded

CC1=CC(=O)[C@H]2C[C@@H]1C2(C)C [(−)-Verbenone, (−)-verbenone]
Mean/trap/visit ± SE Yellowjackets [1, 8]: 18.7 ± 5.9 b wasps/trap/visit
Mean/trap/visit ± SE Paper wasps [2, 8]: 2.9 ± 0.9 ab wasps/trap/visit
activity at doses tested [4]: inactive

CC(=O)OCc1ccccc1 [Benzyl acetate, benzyl acetate]
Mean/trap/visit ± SE Yellowjackets [1, 7]: 8.2 ± 3.0 abc wasps/trap/visit
Mean/trap/visit ± SE Paper wasps [2, 7]: 0.9 ± 0.5 a wasps/trap/visit
antennal (EAD) response to component of ylang ylang oil [3, 6]: strong and repeatable antennal responses

CC(C)=CCCC(C)CC=O (stereo not shown) [Citronellal, citronellal]
Mean/trap/visit ± SE Yellowjackets [1, 7]: 11.4 ± 5.2 bc wasps/trap/visit
Mean/trap/visit ± SE Paper wasps [2, 7]: 0.4 ± 0.2 a wasps/trap/visit
antennal (EAD) response to component of citronella oil [3, 6]: strong and repeatable antennal responses

CC(C)=CCC/C(C)=C/C=O [E-citral]
antennal (EAD) response to component of lemongrass oil [3]: strongly responded

C=CCc1ccc(O)c(OC)c1 [Eugenol, eugenol]
reduction of trap catches of yellowjackets ([1]; AA/2 MB): > 95%
Mean/trap/visit ± SE Yellowjackets [1, 8]: 1.7 ± 0.7 a wasps/trap/visit
decrease of trap catches of paper wasps ([2]; AA/2 MB): 58%
Mean/trap/visit ± SE Paper wasps [2, 8]: 2.0 ± 0.5 ab wasps/trap/visit
antennal (EAD) response to component of clove oil [3, 6]: strong and repeatable antennal responses

CC(C)=CCC/C(C)=C/COC=O [Geranyl formate, geranyl formate]
repellency at the doses tested ([1]; Experiment 8, AA/2 MB): not significantly repellent
Mean/trap/visit ± SE Yellowjackets [1, 5]: 28.2 ± 7.0 b wasps/trap/visit
Mean/trap/visit ± SE Paper wasps [2, 5]: 5.8 ± 2.7 a wasps/trap/visit
antennal (EAD) response to component of geranium oil [3]: significant and consistent EAD-responses

C=CC(C)(O)CCC=C(C)C (stereo not shown) [Linalool, linalool]
repellency at the doses tested ([1]; Experiment 8, AA/2 MB): not significantly repellent
Mean/trap/visit ± SE Yellowjackets [1, 5]: 23.9 ± 4.0 b wasps/trap/visit
Mean/trap/visit ± SE Paper wasps [2, 5]: 5.2 ± 3.5 a wasps/trap/visit
antennal (EAD) response to component of lavender oil [3, 6]: strong and repeatable antennal responses
antennal (EAD) response to component of ylang ylang oil [3, 6]: strong and repeatable antennal responses
antennal (EAD) response to component of lemongrass oil [3]: strongly responded

CC(C)[C@@H]1CC[C@@H](C)CC1=O [Menthone, menthone]
yellowjackets caught, attractant plus compound versus attractant alone ([1]; Experiment 8, AA/2 MB): four times less
Mean/trap/visit ± SE Yellowjackets [1, 5]: 7.7 ± 3.4 a wasps/trap/visit
trap catch reduction to the paper wasps ([2]; Experiment 8, AA/2 MB, not statistically different from the attractant alone): > 50%
Mean/trap/visit ± SE Paper wasps [2, 5]: 2.1 ± 1.3 a wasps/trap/visit
antennal (EAD) response to component of geranium oil [3]: significant and consistent EAD-responses
antennal (EAD) response to component of pennyroyal oil [3]: significant and consistent EAD-responses

COC(=O)c1ccccc1 [Methyl benzoate, methyl benzoate]
Mean/trap/visit ± SE Yellowjackets [1, 7]: 5.2 ± 2.2 ab wasps/trap/visit
Mean/trap/visit ± SE Paper wasps [2, 7]: 1.9 ± 0.8 ab wasps/trap/visit
antennal (EAD) response to component of ylang ylang oil [3, 6]: strong and repeatable antennal responses

COC(=O)c1ccccc1O [Methyl salicylate, methyl salicylate]
Mean/trap/visit ± SE Yellowjackets [1, 7]: 4.7 ± 2.0 ab wasps/trap/visit
Mean/trap/visit ± SE Paper wasps [2, 7]: 0.9 ± 0.5 a wasps/trap/visit
antennal (EAD) response to component of wintergreen oil ([3]; V. pensylvanica antennae, FIG. 12): strong antennal response

CC(C)=C1CC[C@@H](C)CC1=O [Pulegone, pulegone]
Mean/trap/visit ± SE Yellowjackets [1, 7]: 6.4 ± 1.8 abc wasps/trap/visit
Mean/trap/visit ± SE Paper wasps [2, 7]: 0.2 ± 0.1 a wasps/trap/visit
antennal (EAD) response to component of pennyroyal oil [3]: significant and consistent EAD-responses

CC(C)=CCC/C(C)=C\C=O [Z-citral]
antennal (EAD) response to component of lemongrass oil [3]: strongly responded

CC(C)=CCCC(C)CCOC=O (stereo not shown) [citronyl formate, citronellyl formate]
antennal (EAD) response to component of geranium oil [3]: significant and consistent EAD-responses

C=C(C)[C@H]1CC=C(C)C(=O)C1 [d-Carvone, d-carvone]
Mean/trap/visit ± SE Yellowjackets [1, 7]: 4.9 ± 2.2 ab wasps/trap/visit
Mean/trap/visit ± SE Paper wasps [2, 7]: 0.9 ± 0.5 a wasps/trap/visit
antennal (EAD) response to component of spearmint oil [3]: significant and consistent EAD-responses

Cc1ccc(C(C)C)cc1 [p-cymene]
antennal (EAD) response to component of sage oil [3, 6]: strong and repeatable antennal responses

CC1=CCC2CC1C2(C)C (stereo not drawn) [α-pinene]
antennal (EAD) response to component of rosemary oil [3]: significant EAD-responses
antennal (EAD) response to component of sage oil [3, 6]: strong and repeatable antennal responses

C=C1CC[C@@H]2[C@H]1[C@H]1[C@H](C(C)C)CC[C@]12C [β-bourberene]
antennal (EAD) response to component of geranium oil [3]: significant and consistent EAD-responses

E/Z-citral
reduction of trap catches of yellowjackets ([1]; AA/2 MB): more than 70%
Mean/trap/visit ± SE Yellowjackets [1, 8]: 11.6 ± 5.8 a wasps/trap/visit
decrease of trap catches of paper wasps ([2]; AA/2 MB): 88%
Mean/trap/visit ± SE Paper wasps [2, 8]: 0.6 ± 0.3 a wasps/trap/visit

cis/trans-rose oxides
antennal (EAD) response to component of geranium oil [3]: significant and consistent EAD-responses

α/β-thujone
Mean/trap/visit ± SE Yellowjackets [1, 7]: 4.9 ± 1.6 ab wasps/trap/visit
Mean/trap/visit ± SE Paper wasps [2, 7]: 0.2 ± 0.1 a wasps/trap/visit
antennal (EAD) response to component of sage oil [3, 6]: strong and repeatable antennal responses
